Measurements from paper PMC9650428, “Mutagenesis and functional analysis of SotB: A multidrug transporter of the major facilitator superfamily from Escherichia coli” (Frontiers in Microbiology, 2022).
Substitutions are numbered along the chain they refer to. Where two headings read alike, the source gives them in different places.

Experiments:
[1] = molecular target: MdfA; set-up: method as in Heng et al., 2015; settings: ref Heng et al., 2015; read-out: Binding affinity between MdfA and the substrate; cited from earlier work
[2] = molecular target: T1, SotB (Escherichia coli, UniProt P31122); experiment: SPR affinity assay, wild-type SotB; assay type: binding
T1 construct: The full-length sotB and lapC genes from the E. coli MG1655 genome were subcloned into the cloning vector pET28a; 8xHis (C); made in house; host or cells: E. coli C43(DE3)
Experimental: (§1) The instrument used in surface plasmon resonance (SPR) affinity assays was OpenSPR (Nicoya, Canada) and the chip used was COOH sensor chip (Nicoya, Canada). SotB and its variants were as ligands. IPTG, L-arabinose, D-xylose, D-glucose, D-fructose, and D-mannose were as small molecules. Using HSB-EP buffer (10 mM HEPES, 150 mM NaCl, 3 mM EDTA, 0.005% Tween-20, pH7.4) as test buffer and setting flow rate 150 μl/min after installed COOH chip according to OpenSPRTM instrument standard operating procedure. After the signal baseline was reached, loading 200 μl 80% isopropyl alcohol and ran for 10 s to drain bubbles. After reaching baseline, the sample ring was rinsed with HSB-EP buffer and emptied with air. After the signal reached the baseline, loading 200 μl EDC (400 mM, Sigma)/NHS (100 mM, Sigma; 1:1) solution with a flow rate 20 μl/min for 4 min. Then, loading 200 μl ligand (SotB/SotB variants) diluted by the activation buffer (sodium acetate, 10 mM, pH3.5) and ran for 4 min (20 μl/min). Then the sample ring was rinsed with HSB-EP buffer and emptied with air. Loading 200 μl 1 M ethanolamine (Sigma) blocking solution (20 μl/min, 4 min), rinsed the sample ring with HSB-EP buffer, and emptied the sample ring with air. Observing baseline for 5 min to ensure stability. The small molecules were diluted with PBS buffer (2 mM of KH2PO4, 10 mM of Na2HPO4, 2.7 mM of KCl, and 137 mM of NaCl at pH 7.4), and the concentration was shown in the experimental results. The flow rate for small molecules was performed at 20 μl/min. The binding time of small molecule and ligand was 240 s, and the dissociation was 240 s. The analysis software used for the experimental results was TraceDrawer, and the analysis method was one-to-one analysis model.

[3] = system: intact E. coli MG1655 strain; experiment: Growth curve (L-arabinose inhibition / D-xylose competition) assay, intact MG1655; assay type: cell-based, Escherichia coli
Description: In the process of sotB gene knockout, two plasmids were introduced into E. coli MG1655 strain: the plasmid pEcCas expressing Cas9 protein (kanamycin resistance) and the plasmid pEcgRNA/sotB expressing related gRNA (spectinomycin resistance). The pEcCas plasmid was successfully eliminated in this study. […] Thus, the sotB-deletion strain has resistance to spectinomycin. In order to carry out the related L-arabinose inhibition assay more strictly, the same plasmid (pEcgRNA/sotB) was then transformed into intact E. coli MG1655 cells, and the growth conditions of the two strains were measured as follows: The E. coli MG1655 cells (intact cells and sotB-deletion cells) were grown in liquid LB medium containing spectinomycin (50 μg/ml) at 37°C for overnight. The cells were then diluted to an OD600 value of 0.8 with liquid LB medium containing spectinomycin (50 μg/ml). Then, the cells were further diluted 1,000 times with liquid LB medium containing spectinomycin (50 μg/ml). The diluted cells were added to a 96-well plate (200 μl/well). Then, L-arabinose was added with final concentrations of 0 μM, 10 μM, 100 μM, 1 mM, 10 mM, and 100 mM, respectively. The 96-well plate was incubated at 37°C, and the OD600 value was measured every 1 h with a microplate reader. For the competition assay, the intact MG1655 cells diluted 1,000 times were divided into two parts and then added into 96-well plate (200 μl/well). One part was directly added with D-xylose at a final concentration of 0, 1, and 10 mM, respectively; the other part was first added with L-arabinose at a final concentration of 10 mM, then D-xylose was added with final concentrations of 0, 1, and 10 mM, respectively. The method of growth curve measurement is the same as above. All the experiments were repeated at least three times.

[4] = molecular target: XlyE; set-up: method as in Sun et al., 2012; settings: ref Sun et al., 2012; read-out: Binding affinity between XlyE and its substrate; cited from earlier work
[5] = molecular target: T1, SotB; settings: ref Koita and Rao, 2012; cited from earlier work
[6] = molecular target: T2, SotB W119A (Escherichia coli, UniProt P31122, W119A); experiment: SPR affinity assay, SotB variant W119A; settings: read-out: KD, binding affinity with W119A
T2 construct: The full-length sotB and lapC genes from the E. coli MG1655 genome were subcloned into the cloning vector pET28a; 8xHis (C); made in house; host or cells: E. coli C43(DE3)
T2 sequence (P31122 1-396 W119A): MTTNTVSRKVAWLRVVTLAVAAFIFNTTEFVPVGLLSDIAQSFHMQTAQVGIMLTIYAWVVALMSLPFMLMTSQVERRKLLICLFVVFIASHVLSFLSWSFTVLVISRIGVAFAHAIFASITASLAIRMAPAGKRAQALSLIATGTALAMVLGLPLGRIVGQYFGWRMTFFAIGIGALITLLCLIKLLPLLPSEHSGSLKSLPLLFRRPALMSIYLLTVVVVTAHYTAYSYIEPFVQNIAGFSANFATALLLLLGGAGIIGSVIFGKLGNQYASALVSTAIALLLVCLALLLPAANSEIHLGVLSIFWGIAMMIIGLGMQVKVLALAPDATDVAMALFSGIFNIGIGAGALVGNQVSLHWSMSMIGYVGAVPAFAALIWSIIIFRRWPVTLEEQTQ
Experimental: as §1, with “The small molecules were diluted with PBS buffer (2 mM of KH2PO4, 10 mM of Na2HPO4, 2.7 mM of KCl, and 137 mM of NaCl at pH 7.4), and the concentration was shown in the experimental results. The flow rate for small molecules was performed at 20 μl/min. The binding time of small molecule and ligand was 240 s, and the dissociation was 240 s. The analysis software used for the experimental results was TraceDrawer, and the analysis method was one-to-one analysis model.” left out

[7] = molecular target: T3, SotB E29A (Escherichia coli, UniProt P31122, E29A); experiment: SPR affinity assay, SotB variant E29A; settings: read-out: KD, binding affinity with E29A
T3 construct: The full-length sotB and lapC genes from the E. coli MG1655 genome were subcloned into the cloning vector pET28a; 8xHis (C); made in house; host or cells: E. coli C43(DE3)
T3 sequence (P31122 1-396 E29A): T2 sequence (P31122 1-396 W119A) with E29A, A119W
Experimental: as §1, with “The small molecules were diluted with PBS buffer (2 mM of KH2PO4, 10 mM of Na2HPO4, 2.7 mM of KCl, and 137 mM of NaCl at pH 7.4), and the concentration was shown in the experimental results. The flow rate for small molecules was performed at 20 μl/min. The binding time of small molecule and ligand was 240 s, and the dissociation was 240 s. The analysis software used for the experimental results was TraceDrawer, and the analysis method was one-to-one analysis model.” left out

[8] = molecular target: T4, SotB S339A (Escherichia coli, UniProt P31122, S339A); experiment: SPR affinity assay, SotB variant S339A; settings: read-out: KD, binding affinity with S339A
T4 construct: The full-length sotB and lapC genes from the E. coli MG1655 genome were subcloned into the cloning vector pET28a; 8xHis (C); made in house; host or cells: E. coli C43(DE3)
T4 sequence (P31122 1-396 S339A): T2 sequence (P31122 1-396 W119A) with A119W, S339A
Experimental: as §1, with “The small molecules were diluted with PBS buffer (2 mM of KH2PO4, 10 mM of Na2HPO4, 2.7 mM of KCl, and 137 mM of NaCl at pH 7.4), and the concentration was shown in the experimental results. The flow rate for small molecules was performed at 20 μl/min. The binding time of small molecule and ligand was 240 s, and the dissociation was 240 s. The analysis software used for the experimental results was TraceDrawer, and the analysis method was one-to-one analysis model.” left out

[9] = molecular target: T5, SotB H115A (Escherichia coli, UniProt P31122, H115A); experiment: SPR affinity assay, SotB variant H115A; assay type: binding; settings: SotB variant H115A, read-out: KD, binding affinity with H115A
T5 construct: The full-length sotB and lapC genes from the E. coli MG1655 genome were subcloned into the cloning vector pET28a; 8xHis (C); made in house; host or cells: E. coli C43(DE3)
T5 sequence (P31122 1-396 H115A): T2 sequence (P31122 1-396 W119A) with H115A, A119W
Experimental: as §1

[10] = molecular target: T6, SotB N343A (Escherichia coli, UniProt P31122, N343A); experiment: SPR affinity assay, SotB variant N343A; assay type: binding; settings: SotB variant N343A, read-out: KD, binding affinity with N343A
T6 construct: The full-length sotB and lapC genes from the E. coli MG1655 genome were subcloned into the cloning vector pET28a; 8xHis (C); made in house; host or cells: E. coli C43(DE3)
T6 sequence (P31122 1-396 N343A): T2 sequence (P31122 1-396 W119A) with A119W, N343A
Experimental: as §1

[11] = molecular target: FucP; set-up: method as in Dang et al., 2010; settings: ref Dang et al., 2010; read-out: Binding affinity between FucP and the substrate; cited from earlier work
[12] = molecular target: MelB; set-up: method as in Ethayathulla et al., 2014; settings: ref Ethayathulla et al., 2014; read-out: Binding affinity between MelB and the substrate; cited from earlier work
[13] = molecular target: T1, SotB; experiment: Cell based radiotracer uptake assay; settings: E. coli C43(DE3), 0.1 μM tracer, 1 h, p < 0.01
Experimental: The cell-based uptake assay was performed with the following protocol. Plasmids pET28a and pET28a/sotB were transformed into E. coli C43(DE3) competent cells, respectively. Then, these two kinds of cells were grown in LB medium at 37°C and induced with 0.2 mM IPTG for 1 h, when the cell density reached an OD600 of about 1.5. Cells were then harvested by centrifugation. After being washed three times with MK buffer (150 mM KCl, 5 mM MES, pH 6.5), the cells were resuspended in the same buffer to an OD600 of 2.0. To measure the transport activity of SotB protein, took 5 ml of the above cell suspension, respectively, and added ^3H-L-arabinose (American Radiolabeled Chemicals) at a final concentration of 0.1 μM. All the reactions lasted 1 h and were stopped by diluting the cell suspension with 5 ml ice-cold MK buffer. Cells were then harvested by centrifugation. After being washed three times with ddH2O, the cells were resuspended in 5 ml ddH2O, respectively. Then the cells were added to the sample bottle, respectively, and mixed with the same volume of excess scintillation, and then taken for liquid scintillation counting. All the experiments were repeated at least three times.

[14] = SPR, wild-type SotB immobilised, one-to-one model, read-out: KD (equilibrium dissociation constant), binding affinity with SotB

T1 sequence (P31122 whole entry): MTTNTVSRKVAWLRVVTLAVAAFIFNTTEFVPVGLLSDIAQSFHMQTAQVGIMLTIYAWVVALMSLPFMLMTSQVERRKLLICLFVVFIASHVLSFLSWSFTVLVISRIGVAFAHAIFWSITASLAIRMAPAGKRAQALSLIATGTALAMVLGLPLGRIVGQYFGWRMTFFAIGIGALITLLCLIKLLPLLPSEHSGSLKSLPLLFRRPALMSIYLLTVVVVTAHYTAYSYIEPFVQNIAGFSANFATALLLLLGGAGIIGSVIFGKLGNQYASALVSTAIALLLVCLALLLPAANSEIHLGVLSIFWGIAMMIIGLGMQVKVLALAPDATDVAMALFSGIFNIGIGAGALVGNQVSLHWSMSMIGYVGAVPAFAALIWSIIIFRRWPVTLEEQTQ

O=C(N[C@H](CO)[C@H](O)c1ccc([N+](=O)[O-])cc1)C(Cl)Cl [Chloramphenicol]
Kd [1]: 0.075 mM

O=C(CO)[C@@H](O)[C@H](O)[C@H](O)CO [D-fructose]
Kd [2]: 6.6 mM

OC[C@H]1OC(O)[C@H](O)[C@@H](O)[C@@H]1O (stereo partly drawn) [D-glucose]
Kd [2, 14]: 2.6 mM

OC[C@H]1OC(O)[C@@H](O)[C@@H](O)[C@@H]1O (stereo partly drawn) [D-mannose]
Kd [2, 14]: 3.1 mM

O=C[C@H](O)[C@@H](O)[C@H](O)CO [D-xylose]
Effect on growth (OD600 growth curve) ([3]; intact MG1655, 1 mM D-xylose, without L-arabinose): did not cause any growth inhibition
Effect on growth (OD600 growth curve) ([3]; intact MG1655, 10 mM D-xylose in the presence of 10 mM L-arabinose): inhibit the growth
Effect on growth (OD600 growth curve) ([3]; intact MG1655, 10 mM D-xylose, without L-arabinose): did not cause any growth inhibition
Kd [4]: 0.35 mM
Binding affinity to SotB, fold higher than that of L-arabinose to SotB ([2]; SPR, wild-type SotB): 8.7 fold
Kd [2, 14]: 0.47 mM
Transport by SotB [5]: cannot transport

CC(C)S[C@@H]1O[C@H](CO)[C@H](O)[C@H](O)[C@H]1O [IPTG, isopropyl-β-D-1-thiogalactopyranoside]
Kd [6]: 6.7 mM
Kd [7]: 7.6 mM
Kd [8]: 7.6 mM
Kd [9]: 13.7 mM
Binding affinity with SotB, fold lower than that of L-arabinose with SotB ([2]; SPR, wild-type SotB): ~2.5 fold
Kd [2, 14]: 10.2 mM
Kd [10]: 15 mM

C[C@H](O)[C@@H](O)[C@@H](O)[C@H](O)C=O [fucose]
Kd [11]: 0.47 mM

OC[C@H]1O[C@H](OCC2O[C@@H](O)[C@H](O)[C@@H](O)[C@@H]2O)[C@H](O)[C@@H](O)[C@H]1O (stereo partly drawn) [melibiose]
Kd [12]: 1 mM

^3H-L-arabinose
Accumulation in cells expressing wild-type SotB relative to empty vector pET28a [13]: significant reduced accumulation
